# US8680076B2, “Methods of treatment, improvement and prevention using haloaryl substituted aminopurines” (Signal Pharmaceuticals, LLC, priority 2010, dated 2014)
# Entries after “also recorded” stand apart in the source; their conditions may differ.
# Key:
# [1] = system: mice, bleomycin-induced pre-established dermal fibrosis; assay: Modified model of bleomycin-induced dermal fibrosis (regression of established fibrosis); type: in vivo, mouse
# From the text: To evaluate, whether inhibition of JNK might also be effective for the treatment of established fibrosis, a modified model of bleomycin-induced dermal fibrosis was used. […] Thus, Compound JNKi-1 decreased the level of dermal thickness under the pre-treatment level (127±4% vs 175±8% compared to NaCl injections for 6 weeks, p=0.008 and p=0.021) (FIG. 7A).
# [2] = system: fibroblasts from SSc patients; assay: TGF-β and PDGF-induced total collagen secretion (SirCol assay); type: cell-based, human; details: 1 μM
# Experimental: (§1) Dermal fibroblasts from two SSc patients were treated for 24 hours (hr) with Compound JNKi-1 at concentrations from 0.1 μM to 10 μM (0.5% DMSO/99.5% cell culture media). To study the effect of Compound JNKi-1 on growth factor-induced collagen expression, recombinant transforming growth factor beta (TGF-β) (final concentration of 10 ng/mL) or platelet-derived growth factor-BB (PDGF-BB) (final concentration of 40 ng/mL) were added to cells 2 hr after the addition of JNK-inhibitor Compound JNKi-1 for 24 hr. The expression of collagen proteins was analyzed by SirCol assay. The messenger ribonucleic acid (mRNA) levels of extracellular proteins were measured by real-time polymerase chain reaction (PCR). The β-actin mRNA was used as internal control for the measurement of Collagen 1a1 mRNA using PCR. Fibroblast proliferation assay was performed in the presence or absence of 1 μM Compound JNKi-1 for 24 hr with the (3-(4,5-Dimethylthiazol-2-yl)-2,5-diphenyltetrazolium bromide) (MTT) assay.
# The isolation of fibroblasts from human SSc patients and culture conditions used in this study have been previously described (Akhmetshina A, Dees C, Pileckyte M, Maurer B, Axmann R, Jüngel A, et al., Dual inhibition of c-abl and PDGF receptor signaling by dasatinib and nilotinib for the treatment of dermal fibrosis, FASEB J. 2008; 22(7):2214-22). […] Data are expressed as mean±standard error of the mean (SEM). […]
# [3] = system: dermal fibroblasts from SSc patients; assay: Expression of extracellular matrix proteins in dermal fibroblasts from SSc patients (real-time PCR, SirCol); type: cell-based, human
# Experimental: Using fibroblasts isolated from skin biopsies from human systemic sclerosis (SSc) patients, an in vitro study was performed to evaluate whether the selective JNK inhibitor Compound JNKi-1 affects the expression of key extracellular matrix proteins.
# as §1
# The isolation of fibroblasts from human SSc patients and culture conditions used in this study have been previously described (Akhmetshina A, Dees C, Pileckyte M, Maurer B, Axmann R, Jüngel A, et al., Dual inhibition of c-abl and PDGF receptor signaling by dasatinib and nilotinib for the treatment of dermal fibrosis, FASEB J. 2008; 22(7):2214-22). Fibroblast cultures were obtained from skin biopsies of SSc patients. […] Biopsies from SSc patients were taken from involved skin of the forearm. After enzymatic digestion of the skin biopsies with Dispase II, fibroblasts were cultured in DMEM/F-12 containing 10% heat inactivated fetal calf serum (FCS), 100 U/mL penicillin, 100 μg/mL streptomycin, 2 mM L-glutamine and 2.5 μg/mL amphotericin B (all Invitrogen, Karlsruhe, Germany). Fibroblasts from passages 4-8 were used for the experiments. Data are expressed as mean±standard error of the mean (SEM).
# [4] = system: phospho-c-Jun (JNK) in EpiDermFT reconstituted human skin equivalent; assay: UVB-stimulated JNK activation in EpiDermFT skin model (Western blot); type: cell-based
# Experimental: Two in vitro systems, nHEK and the EpiDermFT™ skin model, were used in this study. The nHEK cells and EpiDermFT™ samples were pretreated with JNKi-1 at concentrations of 0.1, 3, and 10 μM prior to 60 mJ/cm^2 and 135 mJ/cm^2 UVB irradiation, respectively. After UV stimulation, the activities of JNK were measured as levels of phospho-c-Jun via immunoblotting of cell lysates using an anti-phospho-c-Jun S63 antibody. Phospho-Stat3 was also evaluated as a marker of JNK activation.
# Samples were cultured in 2 mL of serum-free maintenance media (EFT-200-MM) for 72 hr. After 72 hr, the media was replaced with 2 mL of fresh media containing 0, 0.1, 3, and 10 μM of JNKi-1, respectively). Samples were allowed to soak at 37° C., 5% CO2 for 6 hr, then removed from the media and placed into 2 mL of PBS and irradiated with 135 mJ/cm^2 of UVB. Controls were sham irradiated. Samples were placed back into 2 mL of media containing JNKi-1. Samples were harvested at 30 minutes and 3 hr post UV treatment. Each sample was cut in half; one half was snap frozen in liquid nitrogen, homogenized in lysis buffer, and lysates stored at −80° C. The other half was placed in 10% neutral buffer formalin for 3 hr and transferred to 100% ethanol for processing
# cells were pre-incubated with either dimethyl sulfoxide (DMSO) (FIG. 31, lanes 1, 2, and 12 to 15) or JNKi-1 at the indicated concentration (lanes 3 to 11) for 1 hr and then irradiated without (Control, lanes 1 and 2) or with UVB at 60 mJ/cm^2 (lanes 3 to 15). Cells were lysed 30 minutes after UV irradiation and cell lysates were subjected to sodium dodecyl sulfate polyacrylamide gel electrophoresis (SDS-PAGE) before Western blotting with anti-phospho-c-Jun antibody. […]
# Western analysis: For Western blot analysis, 20 to 25 μg of total protein were applied to SDS-PAGE gels followed by electrophoresis and blotting. […] The intensity of each band was quantified by the Odyssey 2.1 software and exported into Excel for further analysis. […]
# [5] = 150 mg/kg for the last 3 weeks of 6 weeks bleomycin
# [6] = 1 μM, 24 hr, compared to mock-treated fibroblasts
compound,measurement,setting,value
"O[C@H]1CC[C@H](Nc2ncc3nc(Nc4c(F)cc(F)cc4F)n([C@H]4CCOC4)c3n2)CC1 [JNKi-1, 4-((9-((3S)-tetrahydro-3-furanyl)-8-((2,4,6-trifluorophenyl)amino)-9H-purin-2-yl)amino)-trans-cyclohexanol]","dermal thickness, normalized to NaCl injections for 6 weeks = 100%",[1]; 150 mg/kg BID for the last 3 weeks of 6 weeks bleomycin,127±4%
same,accumulation of collagen (hydroxyproline assay),[1]; [5],significantly reduced
same,"number of myofibroblasts, normalized to NaCl injections for 6 weeks = 100%",[1]; [5],171±31%
same,regression of established fibrosis / dermal thickening (in words),[1]; treatment for the last 3 weeks of continuous bleomycin challenge,induced regression of dermal thickening; also recorded: induced regression of fibrosis
same,TGF-β and PDGF-induced collagen secretion,[2],modestly inhibited
same,expression of extracellular matrix proteins (in words),"[3]; 0.1 μM to 10 μM, 24 hr",reduced expression; also recorded: dose-dependently reduced
same,reduction of col 1a1 mRNA level,[3]; [6],71±11%
same,reduction of col 1a2 mRNA level,[3]; [6],61±13%
same,reduction of fibronectin-1 mRNA level,[3]; [6],55±14%
same,reduction of collagen protein in the supernatant,"[3]; 1 μM, compared to control",21±7%
same,concentration at which maximal effects were observed,"[3]; tested 0.1 μM to 10 μM, 24 hr",1 µM
same,"UVB-induced JNK activation (phospho-c-Jun level), in words","[4]; EpiDermFT, 0.1, 3, 10 μM",strongly Inhibits; also recorded: significantly blocks
same,inhibition of phospho-Stat3,"[4]; EpiDermFT, 30 minutes post UV, data not shown",minimal
same,IC50,"[4]; Homo sapiens, light or radiation study, 0.5 h, EpiDermFT, UVB 135 mJ/cm^2, lysed 30 minutes after UV, read-out: IC50 for p-cJun",100 to 3000 nM
